Results: a compilation of properties of binary mixtures (doi:10.1016/j.jct.2010.07.014)

Assay: xn = mol fraction of the nth substance listed
Conditions: 101 kPa

CCCC[n+]1ccccc1.F[B-](F)(F)F + CCO
speed of sound [m/s]
Conditions | 303.15 K | 313.15 K | 323.15 K
x2 = 0.072 | 1575.2 | – | 1529.8
x2 = 0.147 | 1555.4 | 1532.9 | 1511.8
x2 = 0.2229 | – | 1520.8 | –
x2 = 0.3295 | 1514.6 | 1492.5 | 1470.4
x2 = 0.4136 | 1488.6 | 1466.5 | –
x2 = 0.5006 | 1454.7 | 1433.1 | 1409.4
x2 = 0.5789 | – | – | 1374.8
x2 = 0.7074 | 1345.6 | 1329.7 | 1306.2
x2 = 0.8052 | – | 1256.1 | 1233.5
x2 = 0.8999 | 1199.4 | 1175.8 | –
x2 = 0.948 | 1163.7 | 1135.3 | 1106.3

CCCC[n+]1ccccc1.F[B-](F)(F)F + CO
Conditions | speed of sound [m/s]
293.15 K, x2 = 0.1574 | 1589.5
293.15 K, x2 = 0.2119 | 1580.3
293.15 K, x2 = 0.3113 | 1561.6
293.15 K, x2 = 0.3856 | 1545.2
293.15 K, x2 = 0.6109 | 1473.1
293.15 K, x2 = 0.7044 | 1424.8
293.15 K, x2 = 0.8043 | 1353.2
293.15 K, x2 = 0.9023 | 1256.7
303.15 K, x2 = 0.1058 | 1582.7
303.15 K, x2 = 0.2119 | 1558.3
303.15 K, x2 = 0.3856 | 1522.7
303.15 K, x2 = 0.5052 | 1491.6
303.15 K, x2 = 0.6109 | 1450.8
303.15 K, x2 = 0.8043 | 1330.3
303.15 K, x2 = 0.9023 | 1234.7
313.15 K, x2 = 0.1058 | 1552.6
313.15 K, x2 = 0.1574 | 1544.6
313.15 K, x2 = 0.2119 | 1535.7
313.15 K, x2 = 0.3113 | 1516.7
313.15 K, x2 = 0.3856 | 1500.1
313.15 K, x2 = 0.6109 | 1427.1
313.15 K, x2 = 0.7044 | 1378.5
313.15 K, x2 = 0.9512 | 1140.1
323.15 K, x2 = 0.211 | 1512.7
323.15 K, x2 = 0.3066 | 1494.7
323.15 K, x2 = 0.4111 | 1470.5
323.15 K, x2 = 0.5203 | 1440.9
323.15 K, x2 = 0.703 | 1363
323.15 K, x2 = 0.8081 | 1281.6
323.15 K, x2 = 0.9038 | 1172.9
